These results are taken from US20250084074A1, “SUBSTITUTED HETEROCYCLES AS HSET INHIBITORS” (MERCK PATENT GMBH, priority 2022, published 2025).

In general, IC50 refers to the concentration that inhibits the measured activity by half.

The structures appear in SMILES notation.

Chain of HSET full length protein (Q9BW19 whole entry): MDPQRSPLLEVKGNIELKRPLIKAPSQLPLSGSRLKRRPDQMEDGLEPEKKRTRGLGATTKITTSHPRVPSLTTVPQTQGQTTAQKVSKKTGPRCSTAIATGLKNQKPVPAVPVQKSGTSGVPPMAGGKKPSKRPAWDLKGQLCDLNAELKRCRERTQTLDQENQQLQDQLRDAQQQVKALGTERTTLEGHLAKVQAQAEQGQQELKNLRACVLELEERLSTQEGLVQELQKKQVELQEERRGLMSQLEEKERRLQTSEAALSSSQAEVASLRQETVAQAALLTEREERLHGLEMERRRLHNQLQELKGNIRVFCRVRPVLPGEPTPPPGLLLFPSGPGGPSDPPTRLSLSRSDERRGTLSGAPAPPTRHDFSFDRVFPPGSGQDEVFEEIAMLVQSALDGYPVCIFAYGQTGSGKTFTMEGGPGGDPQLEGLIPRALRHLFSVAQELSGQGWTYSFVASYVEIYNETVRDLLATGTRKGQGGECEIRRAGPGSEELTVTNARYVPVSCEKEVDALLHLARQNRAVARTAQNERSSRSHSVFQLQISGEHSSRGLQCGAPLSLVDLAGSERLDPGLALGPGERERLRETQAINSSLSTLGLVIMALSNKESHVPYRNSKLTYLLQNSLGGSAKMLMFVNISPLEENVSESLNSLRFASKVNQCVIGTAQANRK

One experiment concerns the target HSET full length protein (Homo sapiens (Human), UniProt Q9BW19). The experiment in a line: HSET ADP-Glo Assay S - 3 μM ATP. The experiment is classed as biochemical. The following applies: 5 nM HSET, 70 μg/mL microtubule, 80 min at rt, read-out: COMBINED HSET ADP GLO IC50. An outline of the steps: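 ADP-Glo luminescence read-out: ATPase reaction at 3 μM ATP, 80 min at room temperature, after a 10 min compound preincubation. Enzyme was full-length human HSET at 5 nM, stimulated by 70 μg/mL paclitaxel-stabilised bovine microtubules in HEPES pH 6.8 buffer with MgCl2, EGTA, Triton X-100 and DTT.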
For orientation: ADP-Glo first removes unused ATP, then detects ADP through luciferase.
Regarding `CCCOC(=O)n1cc(NC(=O)CCNc2nccc3ccc(-c4noc(C)n4)cc23)nc1C` [Example 257, Propyl 2-methyl-4-(3-{[7-(5-methyl-1,2,4-oxadiazol-3-yl)isoquinolin-1-yl]amino}propanamido)-1 H-imidazole-1-carboxylate], the IC50 amounted to 47 nM.

For the molecule `Cc1nc(-c2ccc3ccnc(NCCC(=O)Nc4cn(C(=O)OC(C)C)c(C)n4)c3c2)no1` [Example 258, Propan-2-yl 2-methyl-4-(3-{[7-(5-methyl-1,2,4-oxadiazol-3-yl)isoquinolin-1-yl]amino}propanamido)-1 H-imidazole-1-carboxylate], the IC50 was found to be 207 nM.

Consider `CCOC(=O)n1cc(NC(=O)CCNc2nccc3ccc(-c4noc(C)n4)cc23)nc1C` [Example 259, Ethyl 2-methyl-4-(3-{[7-(5-methyl-1,2,4-oxadiazol-3-yl)isoquinolin-1-yl]amino}propanamido)-1 H-imidazole-1-carboxylate], for which the IC50 was 531 nM.

Regarding `CCCOC(=O)n1cnc(NC(=O)CCNc2nccc3ccc(-c4noc(C)n4)cc23)c1` [Example 260, Propyl 4-(3-{[7-(5-methyl-1,2,4-oxadiazol-3-yl)isoquinolin-1-yl]amino}propanamido)-1 H-imidazole-1-carboxylate], the IC50 is 140 nM.

On to `CCOC(=O)n1cc(NC(=O)CCNc2nccc3ccc(-c4cnn(C)c4)cc23)nc1C` [Example 261, Ethyl 2-methyl-4-(3-{[7-(1-methyl-1 H-pyrazol-4-yl)isoquinolin-1-yl]amino}propanamido)-1 H-imidazole-1-carboxylate], for which the concentration for half-maximal inhibition (IC50) came to 13000 nM.

Turning to `CCCOC(=O)n1cc(NC(=O)CCNc2nccc3ccc(-c4cnn(C)c4)cc23)nc1C` [Example 262, Propyl 2-methyl-4-(3-{[7-(1-methyl-1 H-pyrazol-4-yl)isoquinolin-1-yl]amino}propanamido)-1 H-imidazole-1-carboxylate], the IC50 came out at 1000 nM.

Take `CCCOC(=O)n1cc(NC(=O)CCNC(=O)c2cccc(-c3noc(C)n3)c2)nc1C` [Example 263]: the IC50 is 200 nM.

Consider `Cc1nc(-c2cccc(C(=O)NCCC(=O)Nc3cn(C(=O)OC(C)C)c(C)n3)c2)no1` [Example 264], for which the IC50 turned out to be 280 nM.

Take `CCOC(=O)n1cc(NC(=O)CCNC(=O)c2cccc(-c3noc(C)n3)c2)nc1C` [Example 265]: the IC50 amounted to 2250 nM.

For the molecule `CCCOC(=O)n1cnc(NC(=O)CCNC(=O)c2cccc(-c3noc(C)n3)c2)c1` [Example 266, Propyl 4-(3-{[3-(5-methyl-1,2,4-oxadiazol-3-yl)phenyl]formamido}-propanamido)-1 H-imidazole-1-carboxylate], the IC50 came out at 3400 nM.

On to `CCCOC(=O)n1cc(NC(=O)[C@@H](O)CNC(=O)c2cccc(-c3cnn(C)c3)c2)nc1C` [Example 267], for which the IC50 was found to be 380 nM.

With `CCCOC(=O)n1cc(NC(=O)[C@H](O)CNC(=O)c2cccc(-c3cnn(C)c3)c2)nc1C` [Example 268], the half-inhibitory concentration (IC50) amounted to 950 nM.

For the molecule `Cc1nc(NC(=O)[C@@H](O)CNC(=O)c2cccc(-c3cnn(C)c3)c2)cn1C(=O)OC(C)C` [Example 269], the half-inhibitory concentration (IC50) stood at 910 nM.

As to `Cc1nc(NC(=O)[C@H](O)CNC(=O)c2cccc(-c3cnn(C)c3)c2)cn1C(=O)OC(C)C` [Example 270], the IC50 is 5100 nM.

For the molecule `CCOC(=O)n1cc(NC(=O)[C@@H](O)CNC(=O)c2cccc(-c3cnn(C)c3)c2)nc1C` [Example 271], the IC50 was found to be 4000 nM.

For the molecule `Cc1nc(-c2ccc3ccnc(NCCC(=O)Nc4cnn(C(=O)OC(C)(C)C)c4)c3c2)no1` [Example 272, tert-Butyl 4-(3-{[7-(5-methyl-1,2,4-oxadiazol-3-yl)isoquinolin-1-yl]amino}propanamido)-1 H-pyrazole-1-carboxylate], the IC50 worked out at 160 nM.

As to `CCCOC(=O)n1cc(NC(=O)CCNc2nccc3ccc(-c4noc(C)n4)cc23)cn1` [Example 273, Propyl 4-(3-{[7-(5-methyl-1,2,4-oxadiazol-3-yl)isoquinolin-1-yl]amino}propanamido)-1 H-pyrazole-1-carboxylate], the IC50 came to 80 nM.

Consider `CCCOC(=O)n1cc(NC(=O)CCNC(=O)c2cccc(-c3noc(C)n3)c2)cn1` [Example 275, Propyl 4-(3-{[3-(5-methyl-1,2,4-oxadiazol-3-yl)phenyl]formamido}-propanamido)-1 H-pyrazole-1-carboxylate], for which the IC50 came to 11500 nM.

Consider `CCCOC(=O)c1sc(NC(=O)CCNC(=O)c2cccc(-c3noc(C)n3)n2)nc1C` [Example 276, Propyl 4-methyl-2-(3-{[6-(5-methyl-1,2,4-oxadiazol-3-yl)pyridin-2-yl]formamido}propanamido)-1,3-thiazole-5-carboxylate], for which the IC50 stood at 37 nM.

Take `Cc1nc(-c2cccc(C(=O)NCCC(=O)Nc3nc(C)c(C(=O)OC(C)(C)C)s3)n2)no1` [Example 277, tert-Butyl 4-methyl-2-(3-{[6-(5-methyl-1,2,4-oxadiazol-3-yl)pyridin-2-yl]formamido}propanamido)-1,3-thiazole-5-carboxylate]: the IC50 turned out to be 155 nM.

Consider `Cc1nc(-c2cccc(C(=O)NCCC(=O)Nc3nc(C)c(C(=O)OC(C)C)s3)n2)no1` [Example 278], for which the IC50 was 71 nM.

In the case of `Cc1nc(-c2cccc(C(=O)NCCC(=O)Nc3nc(C)c(C(=O)OC(C)(C)C)s3)c2F)no1` [Example 279], the IC50 turned out to be 860 nM.

Take `CCCOC(=O)c1sc(NC(=O)CCNc2nccc3ccc(C)cc23)nc1C` [Example 280, Propyl 4-methyl-2-[3-[(7-methyl-1-isoquinolyl)amino]propanoyl-amino]thiazole-5-carboxylate]: the IC50 is 141 nM.

A further experiment deals with HSET (Homo sapiens (Human), UniProt Q9BW19).
Chain of HSET (Q9BW19 whole entry): as above
Experiment: not given
The conditions noted are these: literature (Watts et al., 2013; Zhang et al., 2016); read-out: HSET IC50 in biochemical assays; cited from earlier work.
For `O=C(O)c1cc(I)ccc1NC(=O)[C@H](Cc1ccccc1)NCc1ccccc1` [CW069], the IC50 is 75000 nM.

Consider `COc1ccc(-c2nc(N)s[n+]2-c2ccccc2)cc1` [SR31527], for which the IC50 was 6600 nM.
